We go through four compounds from ChEMBL document CHEMBL6071128, “Chalcone-Monoterpene Derivatives from the Buds of Cleistocalyx operculatus and Their Potential as Protein Tyrosine Phosphatase 1B Inhibitors” (J Nat Prod, 2024).

Experiment [1] addresses T1, Tyrosine-protein phosphatase non-receptor type 1 (Homo sapiens, UniProt P18031).
T1 sequence (P18031 whole entry): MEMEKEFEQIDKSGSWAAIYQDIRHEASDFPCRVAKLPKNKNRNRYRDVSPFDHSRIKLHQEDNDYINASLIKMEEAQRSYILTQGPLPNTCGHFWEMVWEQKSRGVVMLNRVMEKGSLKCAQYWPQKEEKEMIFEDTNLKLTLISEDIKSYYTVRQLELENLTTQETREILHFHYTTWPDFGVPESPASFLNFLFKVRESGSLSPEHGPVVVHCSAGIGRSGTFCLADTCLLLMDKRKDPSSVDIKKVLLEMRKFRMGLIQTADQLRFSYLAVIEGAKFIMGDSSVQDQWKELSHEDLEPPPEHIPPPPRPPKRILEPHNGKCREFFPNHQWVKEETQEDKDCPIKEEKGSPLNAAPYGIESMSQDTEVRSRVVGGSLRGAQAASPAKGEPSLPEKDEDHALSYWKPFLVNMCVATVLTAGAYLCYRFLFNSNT
Description: Binding affinity to human recombinant PTP1B (1 to 322 residues) extracted from Escherichia coli assessed as inhibition constant using p-nitrophenyl phosphate as substrate preincubated for 2 mins followed by substrate addition and measured after 15 mins by absorbance based analysis

Experiment [2] has as its target T1, Tyrosine-protein phosphatase non-receptor type 1. The source holds these as a separate data set.
Description: Inhibition of human recombinant PTP1B (1 to 322 residues) extracted from Escherichia coli using p-nitrophenyl phosphate as substrate incubated for 30 mins by absorbance based analysis

As a reminder, the Ki is a dissociation constant, usually derived from enzyme kinetics or from competition with a known ligand. A lower Ki goes with higher affinity. In general, IC50 refers to the concentration needed to halve the response being measured. Low values mean greater potency, high ones weaker potency. `COc1c(C)c(O)c(C=O)c(O)c1C(=O)[C@@H]1CC(CCC=C(C)C)=CC[C@H]1c1ccccc1`: the Ki in experiment [1] was found to be 3.4 µM. The compound further came in with an IC50 in experiment [2] of 1.4 µM. Consider `COc1c(C)c(O)c(C=O)c(O)c1C(=O)/C=C/c1ccccc1`, for which half-maximal inhibition in experiment [2] (IC50) required 3.9 µM. In turn, `COc1c(C)c(O)c(C=O)c(O)c1C(=O)[C@H]1CC(CCC=C(C)C)=CC[C@@H]1c1ccccc1` registered a Ki in experiment [1] of 5.9 µM. In experiment [2], the IC50 came out at 1.1 µM. For `CC1=C2O[C@]34OC(c5ccccc5)CC(O)=C3C(=O)C(C)(C)C(=O)[C@]4(C)CC2=C(O)C(C(=O)/C=C/c2ccccc2)C1=O` (some centres not stated), in that order: 5.2 µM and 1.5 µM.
